Laboratory results from patent US20070129409A1, “Androgen receptor modulators” (priority 2003, published 2007).
Where a chain is given by its changes, count along the chain named. pIC50: −log10 of the molar value. Where two headings read alike, the source gives them in different places.

How the values were obtained:
[1] = target: T1, hAR (human androgen receptor) (Homo sapiens, UniProt P10275); assay: Competitive binding analysis on hAR extracts with 3H-DHT tracer
T1 construct: made in house; host or cells: baculovirus/Sf9 insect cells
T1 sequence (P10275 1-920): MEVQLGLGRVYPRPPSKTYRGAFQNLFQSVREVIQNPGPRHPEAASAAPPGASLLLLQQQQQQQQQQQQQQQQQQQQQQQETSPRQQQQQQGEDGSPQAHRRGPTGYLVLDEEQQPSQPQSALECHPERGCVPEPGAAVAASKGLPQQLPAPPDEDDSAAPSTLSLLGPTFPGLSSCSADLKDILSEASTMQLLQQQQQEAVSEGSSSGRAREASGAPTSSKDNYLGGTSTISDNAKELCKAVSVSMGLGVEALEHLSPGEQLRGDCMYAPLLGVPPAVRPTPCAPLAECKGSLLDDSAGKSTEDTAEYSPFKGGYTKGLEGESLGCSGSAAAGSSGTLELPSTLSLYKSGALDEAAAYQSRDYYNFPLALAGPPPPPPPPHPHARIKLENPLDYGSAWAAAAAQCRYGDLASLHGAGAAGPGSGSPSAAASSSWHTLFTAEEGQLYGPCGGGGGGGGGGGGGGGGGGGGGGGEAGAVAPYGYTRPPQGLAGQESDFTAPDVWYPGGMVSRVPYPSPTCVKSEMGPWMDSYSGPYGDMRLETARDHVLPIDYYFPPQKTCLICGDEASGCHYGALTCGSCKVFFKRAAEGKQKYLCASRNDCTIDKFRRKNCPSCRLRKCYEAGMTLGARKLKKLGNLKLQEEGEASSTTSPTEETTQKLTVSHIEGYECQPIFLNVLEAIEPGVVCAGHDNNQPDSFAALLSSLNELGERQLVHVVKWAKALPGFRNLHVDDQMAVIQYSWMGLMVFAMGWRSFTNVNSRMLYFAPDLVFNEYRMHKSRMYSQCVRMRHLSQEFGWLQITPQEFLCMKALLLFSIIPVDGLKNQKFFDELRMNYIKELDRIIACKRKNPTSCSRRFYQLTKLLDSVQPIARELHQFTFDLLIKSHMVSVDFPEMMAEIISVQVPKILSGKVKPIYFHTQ
Description: The description below describes how the assay was carried out.
Competitive binding analysis was performed on baculovirus/Sf9 generated hAR extracts in the presence or absence of different concentrations of test agent and a fixed concentration of ^3H-dihydrotestosterone (^3H-DHT) as tracer. This binding assay method is a modification of a protocol previously described (Liao S., et. al. J. Steroid Biochem. 20:11-17 1984). Briefly, progressively decreasing concentrations of compounds are incubated in the presence of hAR extract (Chang et al. P.N.A.S. Vol. 89, pp. […], 1992), hydroxylapatite, and 1 nM^3 H-DHT for one hour at 4° C. Subsequently, the binding reactions are washed three times to completely remove excess unbound ^3H-DHT. hAR bound ^3H-DHT levels are determined in the presence of compounds (=i.e competitive binding) and compared to levels bound when no competitor is present (=i.e. maximum binding). Compound binding affinity to the hAR is expressed as the concentration of compound at which one half of the maximum binding is inhibited.

[2] = target: T2, androgen receptor (Homo sapiens, UniProt P10275, Q868H); assay: AR antagonist cell assay (MDA-MB453-MMTV luciferase reporter, 100 pM DHT); format: cell-based
T2 construct: a human breast tumor cell line expressing androgen receptor; endogenous in cells; host or cells: MDA-MB453-MMTV clone 54-19 (MDA-MB-453 stably transfected with the MMTV-luciferase reporter only)
T2 sequence (P10275 1-920 Q868H): T1 sequence (P10275 1-920) with Q868H
Description: The compounds ability to antagonize the effects of androgen on the androgen receptor were determined in a whole cell assay as described immediately below.
Experimental Procedure for AR Antagonist Cell Assay
This cell line is a stable transfected cell line with MDA-MB453 cell background (a human breast tumor cell line expressing androgen receptor). A MMTV minimal promoter containing ARE was first cloned in front of a firefly luciferase reporter gene. Then the cascade was cloned into transfection vector pUV120puro. […] Puromycin resistant stable cell line was selected.
Cell Culture Media and Reagents:
Plating medium: DMEM (phenol red free), 10% charcoal treated HyClone serum, 1% L-glutamine
Assay medium: DMEM (phenol red free), 1% charcoal treated HyClone serum, 1% L-glutamine, and 1% penicillin/streptomycin
• 1. Cells are maintained in culture medium, splitting cells when they reach 80-90% confluence • 2. To test compounds, 10,000 cells/well are plated to opaque 96 cell culture plate in 100 uvwell plating medium, culture for overnight at 37° C. in cell culture incubator • 3. […] Add 10 ul/well freshly prepared DHT (final concentration at 100 pM) to each well, incubate at 37° C. for 17 hr (overnight) • 5.
The results are reported as the mean of multiple tests as described below (the numbers of tests are indicated in the footnote). N.D. denotes that the compound was not tested.

[3] = tested on: Male C3H/HeN mice; assay: Modified telogen conversion assay; format: in vivo; conditions: 3% w/v in propylene glycol (30%)/ethanol (70%), topical, twice daily for 4 weeks
Description: The telogen conversion assay measures the potential of a compound to convert mice in the resting stage of the hair growth cycle (“telogen”) to the active stage of the hair growth cycle (“anagen”). This assay takes advantage of the fact that the fur (i.e. hair) of 7 week old C3H/HeN mice is in the telogen phase. This phase continues until about 75 days of age. In this assay, selected areas of the mice are shaved, contacted with a test agent, or a control, and the difference in the rate of hair growth is measured (i.e. induction of the anagen phase). The first sign of anagen is the darkening of skin color as melanocytes in the follicles start to synthesize melanin, in preparation for the production of pigmented hairs. This model has a number of advantages. This includes the ready availability of female CH3HeN mice, the ability to screen large numbers of compounds quickly, and the ease of housing and handling such animals.
It has been discovered that male C3H/HeN mice may be used in the telogen conversion assay, when evaluating anti-androgen test compounds. Thus, the model relates to a modification of the existing telogen conversion assay. […]
The treatment area was observed and graded every other day for signs of hair growth. The hair growth response was quantified by recording, for each animal, the day on which signs of hair growth first appeared over the treated area. […]

[4] = after 7 years of treatment; cited from earlier work
[5] = baculovirus/Sf9 generated hAR extract, 1 nM 3H-DHT, one hour at 4° C., mean of repeated tests, read-out: AR Binding IC50
[6] = MDA-MB453-MMTV clone 54-19, 100 pM DHT, 17 hr, mean of multiple tests, read-out: AR Cell IC50

| Molecule | pIC50 [1, 5] | pIC50 [2, 6] | pIC50 [1] | further results |
| --- | --- | --- | --- | --- |
| 2-Chloro-6-(methyl-propyl-amino)-4-trifluoromethyl-nicotinonitrile [Example 12] | 7.06 | 6.23 |  |  |
| C[C@H](c1ccccc1)N(C)c1cc(C(F)(F)F)c(C#N)cn1 (hydrate or solvate) [Example 1, (R)-(+)-6-[Methyl-(1-Phenyl-ethyl)-amino]-4-trifluoromethyl-nicotinonitrile] |  |  |  | melting point: 47.2 to 47.7 °C |
| C[C@H](c1ccccc1)N(C)c1cc(C(F)(F)F)c(C#N)cn1 [Example 1, (R)-(+)-6-[Methyl-(1-Phenyl-ethyl)-amino]-4-trifluoromethyl-nicotinonitrile] |  |  | 7.70 | pIC50 [2]: 7.35; hair growth (induction of anagen) [3]: produced substantial hair growth |
| CC(c1ccccc1)N(C)c1cc(C(F)(F)F)c(C#N)cn1 (centres unmarked) [Example 2, 6-[Methyl-(1-Phenyl-ethyl)-amino]-4-trifluoromethyl-nicotinonitrile] |  |  | 6.91 | pIC50 [2]: 6.64 |
| CCCN(CCC)c1cc(C(F)(F)F)c(C#N)cn1 [Example 3, 6-Dipropylamino-4-trifluoromethyl-nicotinonitrile] |  | < 6.00 | 7.66 |  |
| CCC(C)N(C)c1cc(C(F)(F)F)c(C#N)cn1 (centres unmarked) [Example 4, 6-(sec-Butyl-methyl-amino)-4-trifluoromethyl-nicotinonitrile] |  | < 6.00 | 8.00 |  |
| CCCCN(CCO)c1cc(C(F)(F)F)c(C#N)cn1 [Example 5, 6-[Butyl-(2-hydroxy-ethyl)-amino]-4-trifluoromethyl-nicotinonitrile] | 6.26 |  |  |  |
| CN(Cc1ccccc1)c1cc(C(F)(F)F)c(C#N)cn1 [Example 7, 6-(Benzyl-methyl-amino)-4-trifluoromethyl-nicotinonitrile] | 6.27 |  |  |  |
| CCCN(c1cc(C(F)(F)F)c(C#N)cn1)C1CCCCC1 [Example 8, 6-(Cyclohexyl-propyl-amino)-4-trifluoromethyl-nicotinonitrile] | 6.37 |  |  |  |
| CCC(C)N(C)c1cc(C(F)(F)F)c(C#N)c(Cl)n1 (centres unmarked) [Example 10] |  | < 6.00 | 9.30 |  |
| CCCN(CCC)c1cc(C(F)(F)F)c(C#N)c(Cl)n1 [Example 11, 6-Dipropylamino-2-chloro-4-rtifluoromethyl-nicotinonitrile] |  | < 6.00 | 8.09 |  |
| NCCCC(O)(P(=O)(O)O)P(=O)(O)O [alendronate] |  |  |  | increase in spinal BMD [4]: ≤ 11% |
